Data: the SangsterLogP compilation

## N#Cc1cc(-c2ccncc2)cnc1NCCCCO
  logP: 1.93

## CCNc1ncc(-c2ccncc2)cc1C#N
  logP: 2.33

## N#Cc1cc(-c2ccncc2)cnc1N1CCCC1
  logP: 2.95

## CN(C)c1ncc(-c2ccncc2)cc1C#N
  logP: 2.13

## N#Cc1cc(-c2ccncc2)cnc1NCCCO
  logP: 1.42

## CCC(CO)Nc1ncc(-c2ccncc2)cc1C#N (stereo not given)
  logP: 1.04

## COC(CNc1ncc(-c2ccncc2)cc1C#N)OC
  logP: 2.28

## N#Cc1cc(-c2ccncc2)cnc1NCCO
  logP: 1.17

## C=CCNc1ncc(-c2ccncc2)cc1C#N
  logP: 2.07

## CC(O)CNc1ncc(-c2ccncc2)cc1C#N (stereo not given)
  logP: 0.79

## N#Cc1cc(-c2ccncc2)cnc1Cl
  logP: 1.74

## COCCCNc1ncc(-c2ccncc2)cc1C#N
  logP: 2.03

## N#Cc1cc(-c2ccncc2)cnc1NCc1ccccc1
  logP: 3.45

## N#Cc1cc(-c2ccncc2)cnc1N(CCO)CCO
  logP: 1.14

## N#Cc1cc(-c2ccncc2)cnc1NCCOCCO
  logP: 1.62
